One may read the pEC50 as −log10 of the EC50, conventionally taken in molar units.

pEC50: −log10 of the molar value.

The test system of data set [1] is ventral cerebrum markers NKX2.1 and MASH1 in cerebral organoid. Put plainly: Immunohistostaining of cerebral organoids with anti-NKX2.1 and anti-MASH1 antibody. Type of data set: cell-based, human. The method, then:
(§1) The cell line iPSC 409B2 (Cell no. HPS0076) was obtained from National University Corporation Kyoto University through RIKEN BioResource Center Cell Bank. In order to maintain the undifferentiated state, the iPS cells were cultured in an Essential 8 medium on a dish coated with vitronectin (VNT-N, Thermofisher Scientific).
(§2) A cerebral organoid was prepared according to the method described in Lancaster et al., Nat Protoc. 9: 2329-2340, 2014. Using TrypLE™ (Thermofisher Scientific), hiPSCs cultured in an E8 medium were separated into single cells, which were then reaggregated to a cell mass having a density of approximately 10,000 cells, using a […] E6 medium, in a low-adhesion 96-well round bottom plate.
(§3) To the E6 medium, FGF2 (5 ng/mL, 0 to 4 days after initiation of the culture) and a ROCK inhibitor (Thiazovivine, 1μM, 0 to 4 days after initiation of the culture) were added. The medium was exchanged with a fresh one at 2 and 4 days after initiation of the culture. At 6 days after initiation of the culture, the medium was exchanged with a neural differentiation medium (DMEM/F12, 1% N2 supplement, insulin, 1% GlutaMax supplement, 1% NEAA, 1% penicillin-streptomycin, and 1 μg/mL heparin) containing SAG, caged SAG (photoresponsive protective group-binding SAG), or caged SAG before or after UV irradiation. When caged SAG was added, the culture was irradiated with a light for 15 minutes, using a halogen lamp. At 6, 8, and 10 days after initiation of the culture, the medium was exchanged with a fresh one.
Three types of organoids cultured under individual conditions were recovered at 11 days after initiation of the culture, and were then subjected to qPCR. […]
Thereafter, the organoid was cut into a frozen section with a size of […] and was recovered on a slide glass. […] A fluorescent image was obtained using an inverted fluorescence microscope equipped with a CMOS camera (Zyla4.2, Andor).

Data set [2] has as its system hedgehog signal downstream gene Gli in NIH-3T3 cells. In words: Hedgehog signal assay in NIH-3T3 cells (Gli expression, quantitative PCR). Type of data set: cell-based. The method, then: (§4) NIH-3T3 cells were allowed to grow in DMEM (supplemented with 10% FBS, glutamine, penicillin, and streptomycin). In order to perform a hedgehog signal assay, the cells that had been cultured to reach confluent were cultured in a starvation-induced medium (DMEM; serum not added) overnight, so that the cells were in a starved state. Subsequently, the medium was exchanged with a starvation-induced medium supplemented with SAG, caged SAG, SANT75, caged SANT75, or the like. Using a halogen lamp, the cells were irradiated with a light for 15 minutes. Thereafter, total RNA was extracted from the NIH-3T3 cells cultured for 6 hours, and was then subjected to real-time PCR.
(§5) Total RNA was extracted using TriPure Isolation Reagent kit (Roche Diagnosis). cDNA was synthesized using SuperScript (registered trademark) IV Reverse Transcriptase (Invitrogen). Quantitative PCR was carried out using KAPA SYBR Fast qPCR kit (KAPA Biosystems). The data were standardized with respect to the expression level of GAPDH.

A further data set addresses Smoothened (Mus musculus, UniProt P56726). The note with it: previously reported, Chen et al., Proc. Natl. Acad Sci, 99: 14071-14076, 2002; cited from earlier work.
Data set [3] relates to hedgehog signals (Glil expression). In words: Inhibition of SAG-induced hedgehog signals (Glil expression) by antagonist. As to conditions: SAG 100 nM and SANT75 1 μM simultaneously. Type of data set: cell-based. The method, then: as §4, §5
Data set [4] can be described thus: Photolysis kinetic analysis of caged SAG using HPLC (365 nm light). As to conditions: 100 μM caged SAG in PBS:DMSO=9:1, light at 365 nm, 0 to 8 J/cm^2, HPLC. The format is physicochemical. The method, then:
100 μM Caged SAG (PBS:DMSO=9:1) was irradiated with a light at a wavelength of 365 nm at an energy intensity of 0 to 8 J/cm^2. Each sample was analyzed according to HPLC (5-C18-AR-II column, at 0 min, CH3CN:H2O=5:95, at 8 min, 30:70, and then at 15 min, 0:100). Each fraction obtained by HPLC was recovered, and was then analyzed according to ESI spectrometry.

The test system of data set [5] is ventral cerebrum markers NKX2.1 and MASH1 in cerebral organoid. Put plainly: Expression of ventral cerebrum markers in cerebral organoids, quantitative PCR. Type of data set: cell-based, human. The method, then:
as §1, §2, §3
Three types of organoids cultured under individual conditions were recovered at 11 days after initiation of the culture, and were then subjected to qPCR. Each organoid was embedded in a Matrigel droplet (25 μl), and was then transferred on a 60-mm dish containing a brain differentiation medium (DMEM/F12 : Neurobasal™ media=1:1, which was supplemented with a 0.5% N2 supplement, a 1% GlutaMax supplement, 0.5% NEAA, 1% penicillin-streptomycin, insulin, and a 1% B27 supplement (not containing vitamin A)). At 15 days after initiation of the culture, the medium was exchanged with a brain differentiation medium supplemented with a vitamin A-containing B27 supplement, and was then transferred into an Orbital Shaker. Thereafter, the medium was exchanged with a fresh one, every 4 or 5 days, until 30 days after initiation of the culture.
as §5

Chain of Smoothened (P56726 33-793): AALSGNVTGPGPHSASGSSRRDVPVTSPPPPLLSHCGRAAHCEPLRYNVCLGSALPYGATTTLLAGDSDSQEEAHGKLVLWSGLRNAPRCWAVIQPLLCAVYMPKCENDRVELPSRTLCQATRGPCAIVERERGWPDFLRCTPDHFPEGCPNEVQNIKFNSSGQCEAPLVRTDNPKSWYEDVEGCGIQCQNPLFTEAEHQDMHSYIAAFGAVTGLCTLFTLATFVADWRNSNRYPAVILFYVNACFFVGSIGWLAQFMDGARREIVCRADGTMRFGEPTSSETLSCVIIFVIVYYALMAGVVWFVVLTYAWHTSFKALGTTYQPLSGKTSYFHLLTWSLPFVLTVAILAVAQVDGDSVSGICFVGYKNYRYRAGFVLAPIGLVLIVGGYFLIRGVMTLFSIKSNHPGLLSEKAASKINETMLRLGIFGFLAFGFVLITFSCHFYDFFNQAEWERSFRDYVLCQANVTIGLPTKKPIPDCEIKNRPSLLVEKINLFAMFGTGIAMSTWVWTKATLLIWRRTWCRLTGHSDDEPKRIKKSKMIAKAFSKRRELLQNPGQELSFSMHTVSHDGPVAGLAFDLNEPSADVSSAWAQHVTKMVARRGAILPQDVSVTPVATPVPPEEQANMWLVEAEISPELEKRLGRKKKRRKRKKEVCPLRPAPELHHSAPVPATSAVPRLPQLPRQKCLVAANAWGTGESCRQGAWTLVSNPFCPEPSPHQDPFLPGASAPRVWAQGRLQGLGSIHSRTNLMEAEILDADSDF

Regarding `CNC1CCC(N(Cc2cccc(-c3ccncc3)c2)C(=O)c2sc3ccccc3c2Cl)CC1` (centres unmarked) [SAG, reference compound], the “expression levels of NKX2.1 and MASH1” value in data set [1] (cultured in the presence of SAG (SAG(+))) is on record as “increased”. Further, the “activation (expression level of Gli)” value is given as “only a little activation” in data set [2] (SAG at 1 nM) and “activation was observed” in data set [2] (SAG at 10 nM). For the same molecule, in data set [2] (cells cultured in the presence of SAG), the “expression level of Gli” value is recorded as “increased”. The pEC50 on Smoothened is 8.52.
For the molecule `CCCNC1CCC(N(Cc2cccc(-c3ccncc3)c2)C(=O)c2sc3ccccc3c2Cl)CC1` (centres unmarked) [SANT75], the “inhibition of hedgehog signals (expression level of Glil)” value in data set [3] was “competitive inhibition”.
Consider `COc1cc(C(C)OC(=O)N(C)C2CCC(N(Cc3cccc(-c4ccncc4)c3)C(=O)c3sc4ccccc4c3Cl)CC2)c([N+](=O)[O-])cc1OCCCC(=O)O` (centres unmarked) [caged SAG], for which the “energy intensity at which photolysis was almost completed” value in data set [4] is recorded as 2-4 J/cn^2. In addition, the Smo agonistic activity result in data set [5] (as a result of light irradiation) is “the same level of Smo agonistic activity as that of SAG”. The “expression levels of NKX2.1 and MASH1” value in data set [5] (caged SAG after completion of light irradiation, 100 nM, quantitative PCR) was “increased”; in data set [1] (caged SAG after completion of light irradiation (100 nM)) it was “increased”; in data set [1] (cerebral organoid cultured in the presence of caged SAG irradiated with a light), “increased”. In data set [5] (caged SAG before light irradiation, 100 nM, quantitative PCR), the “expression of the ventral cerebrum markers (NKX2.1 and MASH1)” value was “not induced”. Besides, the “activity of caged SAG” value in data set [5] (photodissociable protective group bound, without light irradiation) is recorded as “suppressed”. Also, the “expression level of Gli” value in data set [2] (100 nM caged SAG, cells irradiated with a light) is recorded as “increased”. Moreover, the “expression of Gli” value in data set [2] (100 nM caged SAG, cells not irradiated with a light) is reported as “could not be confirmed”. In addition, the “activation (expression level of Gli)” value was “only a little activation” in data set [2] (caged SAG at 1 nM, with light irradiation) and “activation was observed” in data set [2] (caged SAG at 10 nM, with light irradiation).

(Values after patent publication US20200397901A1, “PHOTORESPONSIVE SMOOTHENED LIGAND” (The University of Tokyo, priority 2018, published 2020).)
